Format in all cases: in vivo
Experiment [1] concerns Complement component 1, q subcomponent binding protein, C1qbp. The experiment in a line: Cerebral cortex gene expression: C1qbp. As to conditions: mouse cerebral cortex; diet 1 ppm Se, 100 days; vs selenium deficient; * = significant, p<0.01. An excerpt: (§1) Animal Care. Male C57BL/6J mice were housed singly and started on the experimental diets described below immediately after weaning (21 days of age). The mice were maintained in the Shared Aging Rodent Facility at the William S. Middleton Memorial Veterans Administration Medical Center (Madison, Wis.). Temperature and humidity were maintained at constant levels. Room light was controlled to provide 12-hr cycles of light and dark.
(§2) Experimental diets were created by Harlan Teklad (Madison, Wis.). Selenium content of the diets was determined by Covance Inc. (Madison, Wis.). Five (5) animals were included in each of the following treatment groups: a diet deficient in selenium (SD); a diet supplemented with selenomethionine (SM, obtained from Sigma, St. Louis, Mo.) such that the final selenium content of the diet was one (1) part per million; a diet supplemented with sodium selenite (SS, Sigma) such that the final concentration of selenium in this diet was one (1) part per million; or a diet supplemented with the yeast selenium SEL-PLEX (SP, Alltech, Lexington, Ky), such that the final concentration of selenium in this diet was one (1) part per million. SEL-PLEX. […]
(§3) Tissue sample preparation and microarray analysis. […] For intestinal expression studies, the intestine was flushed twice with saline solution and small intestine was measured and divided in three equal segments. […]

Another experiment has as its system Glutathione Peroxidase 3. The experiment in a line: Intestinal gene expression (microarray): Glutathione Peroxidase 3. As to conditions: mouse intestine; diet 1 ppm Se, 100 days; vs selenium deficient; all p < 0.01.
Description: as §1, §2, §3

For a further experiment, the system named is CORS-26. The experiment in a line: Cerebral cortex gene expression: CORS-26. The conditions noted are these: mouse cerebral cortex; diet 1 ppm Se, 100 days; vs selenium deficient.
Description: as §1, §2, §3

Another experiment has as its system selenoprotein N1 (Sepn1). The experiment in a line: Intestinal gene expression: selenoprotein N1. As to conditions: mouse intestine; diet 1 ppm Se, 100 days; vs selenium deficient.
Description: as §1, §2, §3

Another experiment deals with Cathepsin B. The experiment in a line: Cerebral cortex gene expression: Cathepsin B. The conditions noted are these: mouse cerebral cortex; diet 1 ppm Se, 100 days; * downregulation significant relative to Se-deficient mice.
Description: as §1, §2, §3

The test system of the next experiment is calpain-5. The experiment in a line: Expression level of calpain genes after selenium administration. As to conditions: signed change (+ up, − down); tissue not stated; * not explained. The protocol:
Compositions and methods of the present invention were analyzed to determine if they were capable of altering the expression levels of calpain genes. Compositions comprising various forms of selenium (e.g., SeM, Sod-sel, and SEL-PLEX) were administered to subjects and the expression levels of calpain genes monitored. The expression level of calpain-5 was altered by treatment in the following ways: free selenomethionine (SM)+1.32*, Sod-sel−1.07, SEL-PLEX−1.44*.

Experiment [2] deals with Thioredoxin Reductase 1 (Trx-1). The experiment in a line: Intestinal gene expression: Thioredoxin Reductase 1. The conditions noted are these: mouse intestine; diet 1 ppm Se, 100 days; vs selenium deficient; all p < 0.01.
Description: as §1, §2, §3

The next experiment concerns Gst zeta 1 (Gstz1). The experiment in a line: Brain gene expression: Gstz1. As to conditions: mouse brain; diet 1 ppm Se, 100 days; * significant relative to Se-deficient animals.
Description: as §1, §2, §3

For a further experiment, the system named is Gadd45b. The experiment in a line: Brain gene expression: Gadd45b. The conditions noted are these: mouse brain; diet 1 ppm Se, 100 days; * significant relative to Se-deficient animals.
Description: as §1, §2, §3

Another experiment deals with Prohibitin (Phb). The experiment in a line: Intestinal gene expression: Prohibitin. The conditions noted are these: mouse intestine; diet 1 ppm Se, 100 days; vs selenium deficient; p<0.05.
Description: as §1, §2, §3

Experiment [3] relates to transforming growth factor beta 2 (TGF-β2). The experiment in a line: Intestinal gene expression: TGF-β2. As to conditions: mouse intestine; diet 1 ppm Se, 100 days; compared to controls.
Description: as §1, §2, §3

For experiment [4], the system named is Complement component 1, r subcomponent, C1r. The experiment in a line: Cerebral cortex gene expression: C1r. The conditions noted are these: mouse cerebral cortex; diet 1 ppm Se, 100 days; vs selenium deficient; * = significant, p<0.01.
Description: as §1, §2, §3

The subject of another experiment is Junb. The experiment in a line: Cerebral cortex gene expression: Junb. The conditions noted are these: mouse brain (neocortex); diet 1 ppm Se, 100 days; * significant relative to Se-deficient animals.
Description: as §1, §2, §3

A further experiment has as its system Neurogenin 3 (Neurog3). The experiment in a line: Intestinal gene expression: Neurog3. As to conditions: mouse intestine; diet 1 ppm Se, 100 days; vs selenium deficient.
Description: as §1, §2, §3

Experiment [5] deals with Cu chaperone for SOD, (CCS). The experiment in a line: Intestinal gene expression: Cu chaperone for SOD. The conditions noted are these: mouse intestine; diet 1 ppm Se, 100 days; vs selenium deficient.
Description: as §1, §2, §3

Experiment [6] relates to Glutathione S-transferase, theta 2 (Gstt2). The experiment in a line: Intestinal gene expression: Gstt2. As to conditions: mouse intestine; diet 1 ppm Se, 100 days; vs Se-deficient diets; negative = down; NS = not significant.
Description: as §1, §2, §3

The test system of experiment [7] is Glutathione S-transferase, mu1 (Gstm1). The experiment in a line: Intestinal gene expression: Gstm1. As to conditions: mouse intestine; diet 1 ppm Se, 100 days; vs Se-deficient diets; negative = down; NS = not significant.
Description: as §1, §2, §3

As for `C[Se]CC[C@H](N)C(=O)O` [SeM, selenomethionine], the “FC C1qbp expression” value in experiment [1] amounted to 1.12 fold. Besides, in the experiment on Glutathione Peroxidase 3, the “fold change (FC) in Glutathione Peroxidase 3 gene expression” value worked out at 4.6 fold. The “CORS-26 expression, reduction in expression” value with CORS-26 is “no alteration”. In addition, in the experiment with selenoprotein N1 (Sepn1), the “selenoprotein N1 (Sepn1) expression level, increased” value is recorded as “not significantly affected”. Also, in the experiment with Cathepsin B, the “FC Cathepsin B expression” value is listed as −1.03 fold. The “expression level of calpain-5 altered by treatment” value in the experiment on calpain-5 is on record as “+1.32”. For the same compound, the “fold increase in expression of the Thioredoxin Reductase 1 gene” value in experiment [2] was 1.8 fold. Further, the “FC Gstz1 expression” value in the experiment on Gst zeta 1 (Gstz1) is −1.08 fold. The “FC Gadd45b expression” value with Gadd45b is reported as −1.26 fold. Besides, the “Prohibitin (Phb) expression, upregulated” value in the experiment on Prohibitin (Phb) amounted to 1.6 fold. Moreover, the “TGF-β2 expression, upregulated” value in [3] is given as “not altered”. In [4], the “FC C1r expression” value turned out to be 1.04 fold. The “FC Junb expression” value with Junb is −1.38 fold. Besides, the “Neurog3 expression, upregulated” value with Neurogenin 3 (Neurog3) is on record as “no significant alteration”.
Consider `O=[Se](O)O` [Sod-sel, sodium selenite], for which the “FC C1qbp expression” value in experiment [1] was 1.11 fold. In the experiment with Glutathione Peroxidase 3, the “fold change (FC) in Glutathione Peroxidase 3 gene expression” value stood at 3.5 fold. For the same compound, the “FC Cathepsin B expression” value in the experiment on Cathepsin B was −1.13* fold. For the same compound, the “enhancement in the expression of the Cu chaperone for SOD (CCS)” value in experiment [5] is given as 1.28 fold. Moreover, in the experiment with Gst zeta 1 (Gstz1), the “FC Gstz1 expression” value was −1.3 fold. For the same compound, the “FC Gadd45b expression” value in the experiment on Gadd45b is reported as −1.39* fold. In [6], the “FC Gstt2 expression” value is given as −1.3 fold. The “FC Gstm1 expression” value in experiment [7] is −2.4 fold. Besides, in experiment [4], the “FC C1r expression” value was −1.29 fold. For the same compound, in the experiment on Junb, the “FC Junb expression” value was −1.59 fold.

(Values after patent US20070155687A1, “Methods and compositions for altering cell function” (Alltech, Inc., priority 2005, published 2007).)
